These results are taken from ChEMBL document CHEMBL1146839, “Orally active amino functionalized antimalarial 1,2,4-trioxanes” (Bioorg Med Chem Lett, 2004).

Calls of active or inactive are those of the source. The calls are words filed in the database; no cut-off is given here.

The subject of data set [1] is Mus musculus. In words: In vivo antimalarial activity against Plasmodium yoelii in mice (Mus musculus) at 96 mg/kg/day orally on day 4 expressed as percent suppression. The class given is functional. Conditions: route oral.
Data set [2] deals with Mus musculus. Nature of the data set: Mean survival time against Plasmodium yoelii in mice (Mus musculus) which died during 28-day observation period at 96 mg/kg/day intramuscularly. The class given is functional. The conditions noted are these: route intramuscular.
Data set [3] in a line: Number of survivals against Plasmodium yoelii in mice (Mus musculus) (out of 5) at 96 mg/kg/day intramuscularly on day 28. The class given is organism-based. On the set-up: route intramuscular. The conditions noted are these: in vivo, im.
A short description of data set [4]: Number of survivals against Plasmodium yoelii in mice (Mus musculus) (out of 5) at 96 mg/kg/day orally on day 28. The class given is organism-based. On the set-up: route oral. Conditions: in vivo, po.
Data set [5] concerns Mus musculus. In words: Mean survival time against Plasmodium yoelii in mice (Mus musculus) which died during 28-day observation period at 96 mg/kg/day orally. Type of data set: functional. Conditions: route oral.
Data set [6] concerns Mus musculus. Nature of the data set: In vivo antimalarial activity against Plasmodium yoelii in mice (Mus musculus) at 96 mg/kg/day intramuscularly on day 4 expressed as percent suppression. The class given is functional. Conditions: route intramuscular.
The nature of data set [7]: Number of survivals against Plasmodium yoelii in mice (Mus musculus) (out of 5) at 48 mg/kg/day orally on day 28. Conditions: in vivo, po. Also noted: route oral. Type of data set: organism-based.
Data set [8] deals with Mus musculus. Nature of the data set: Mean survival time against Plasmodium yoelii in mice (Mus musculus) which died during 28-day observation period at 24 mg/kg/day orally. Type of data set: functional. Conditions: route oral.
The test system of data set [9] is Mus musculus. In words: Mean survival time against Plasmodium yoelii in mice (Mus musculus) which died during 28-day observation period at 48 mg/kg/day orally. The conditions noted are these: route oral. Type of data set: functional.
For data set [10], the system named is Mus musculus. Nature of the data set: In vivo antimalarial activity against Plasmodium yoelii in mice (Mus musculus) at 24 mg/kg/day orally on day 4 expressed as percent suppression. Type of data set: functional. Conditions: route oral.
For data set [11], the system named is Mus musculus. In words: In vivo antimalarial activity against Plasmodium yoelii in mice (Mus musculus) at 48 mg/kg/day orally on day 4 expressed as percent suppression. Type of data set: functional. The conditions noted are these: route oral.
Data set [12] can be described thus: Number of survivals against Plasmodium yoelii in mice (Mus musculus) (out of 5) at 24 mg/kg/day orally on day 28. The class given is organism-based. On the set-up: route oral. The conditions noted are these: in vivo, po.
The subject of data set [13] is Mus musculus. In words: In vivo antimalarial activity against Plasmodium yoelii in mice (Mus musculus) at 96 mg/kg/day intramuscularly on day 4 expressed as percent suppression; No suppression. The class given is functional, organism-based.
In data set [14] the test system is Mus musculus. In words: Percent suppression against Plasmodium yoelii in mice (Mus musculus) at 24 mg/kg/day orally on day 4. The class given is functional. Conditions: route oral.
The test system of data set [15] is Mus musculus. Nature of the data set: Percent suppression against Plasmodium yoelii in mice (Mus musculus) at 96 mg/kg/day intramuscularly on day 4. The class given is functional. The conditions noted are these: route intramuscular.

For the compound `C=C(c1ccccc1)C1COC2(CCC(Nc3cc(Cl)cc(Cl)c3)CC2)OO1` (stereo not given), the Suppression in [1] amounted to 100%; in data set [6] it was 62%. Besides, the MST in data set [2] was found to be 12.4 days; in data set [5], 16.5 days. Also, the figures for the No. of survivals in data set [3] and in [4] were 0 and 2, respectively.
As to `C=C(c1ccccc1)C1COC2(CCC(Nc3ccc(OC)cc3)CC2)OO1` (stereo not given), the Suppression in data set [1] was 93%; in data set [6], 63%. Moreover, the MST in [2] turned out to be 10.8 days; in data set [5], 12.4 days. The No. of survivals in data set [3] and in data set [4] was 0 in each case.
With `C=C(c1ccc(-c2ccccc2)cc1)C1COC2(CCC(=O)CC2)OO1` (stereo not given), the figures for the Suppression in data set [1] and in data set [6] were 92% and 100%, respectively. In addition, the MST in data set [2] amounted to 17.7 days; in data set [5], 10.2 days. Moreover, the No. of survivals is on record as 1 in [3] and 0 in [4].
As to `C=C(c1ccc(-c2ccccc2)cc1)C1COC2(CCC(Nc3ccc(OC)cc3)CC2)OO1` (stereo not given), the Suppression in [1] was 94%; in data set [6], 57%. The MST in [2] was 8.4 days; in data set [5], 11.1 days. The No. of survivals in [3] and in data set [4] was 0 each time.
For `CCN(CC)CCCC(C)Nc1ccnc2cc(Cl)ccc12` (stereo not given) [CHLOROQUINE], the results for the No. of survivals in data set [7] and in [12] were 2 and 0, respectively. The MST in data set [8] was 14.8 days; in data set [9], 17.6 days. For the same compound, the Suppression in data set [10] and in [11] was 100% throughout.
Turning to `C=C(c1ccccc1)C1COC2(CCC(Nc3ccccc3)CC2)OO1` (stereo not given), the Suppression in [1] was determined as 95%; in data set [6], 60%. Also, the MST was 13.4 days in [2] and 12.2 days in data set [5]. The No. of survivals in data set [3] and in data set [4] was 0 in each case.
For `CCO[C@H]1O[C@@H]2O[C@@]3(C)CC[C@H]4[C@H](C)CC[C@@H]([C@H]1C)[C@@]24OO3` [ARTEMOTIL], the No. of survivals in data set [7] came to 5; in data set [12], 1. Also, the values for the MST in data set [8] and in [9] were 17.75 days and above 28 days, respectively. Moreover, the Suppression in data set [10] and in [11] was 100% each time.
For `C=C(c1ccccc1)C1COC2(CCC(Nc3cccc4ccccc34)CC2)OO1` (stereo not given), the Suppression in data set [1] was 100%; in [6], 44%. For the same compound, the MST in data set [2] is 9.2 days; in data set [5] it was 19.5 days. Moreover, the No. of survivals in data set [3] and in [4] was 0 in each case.
Consider `C=C(c1ccccc1)C1COC2(CCC(Nc3ccc(NC(C)=O)cc3)CC2)OO1` (stereo not given), for which the Suppression in [1] was found to be 77%; in data set [6], 98%. Also, the MST in data set [2] amounted to 9 days; in data set [5], 9.8 days. Besides, the No. of survivals in data set [3] and in data set [4] was 0 throughout.
`C=C(c1ccc(-c2ccccc2)cc1)C1COC2(CCC(Nc3ccc(NC(C)=O)cc3)CC2)OO1` (stereo not given): the Suppression in data set [1] is listed as 49%; in data set [6], 90%. The MST in [2] turned out to be 11.6 days; in data set [5], 8.4 days. Moreover, the No. of survivals in data set [3] and in data set [4] was 0 throughout.
Turning to `C=C(c1ccc(-c2ccccc2)cc1)C1COC2(CCC(Nc3cc(Cl)cc(Cl)c3)CC2)OO1` (stereo not given), the Suppression in [1] is given as 65%; in data set [6], 46%. The MST in data set [2] worked out at 7 days; in data set [5], 10.2 days. The No. of survivals in [3] and in data set [4] was 0 each time.
Consider `C=C(c1ccccc1)C1COC2(CCC(=O)CC2)OO1` (stereo not given), for which the Suppression worked out at 7% in data set [1] and 99% in data set [6]. In addition, the MST in [2] was 11.6 days; in data set [5] it was 7.2 days. Further, the No. of survivals in data set [3] and in data set [4] was 0 each time.
Turning to `C=C(c1ccc(-c2ccccc2)cc1)C1COC2(CCC(Nc3cccc4ccccc34)CC2)OO1` (stereo not given), in data set [1], the Suppression is listed as 100%. Also, the figures for the MST in data set [2] and in data set [5] were 6.6 days and 14.8 days, respectively. Also, the No. of survivals in data set [3] and in data set [4] was 0 throughout. Besides, the Suppression entry in [13] was “inactive”.
With `C=C(c1ccc(-c2ccccc2)cc1)C1COC2(CCC(Nc3ccccc3)CC2)OO1` (stereo not given), the No. of survivals in [7] is reported as 3; in data set [3], 0; in data set [4], 5; in data set [12], 0. Moreover, the MST in [8] was 13.4 days; in [9] it was 14.5 days; in data set [2], 10.7 days; in data set [5] it was above 28 days. Besides, the Suppression in data set [14] was 98%; in data set [1], 100%; in [11], 100%; in data set [15], 72%.
